According to patent US20030092760A1, “Therapeutic agent for renal failure” (Toray Industries, Inc., priority 2001, published 2003):

Legend:
[1] = system: ⅚ nephrectomized rat model; test: Effect on ⅚ nephrectomized rat model: renal functions; type: in vivo, Wistar rats; details: 50 mg/kg oral twice a day
Experimental: The effect of beraprost sodium on a ⅚ nephrectomized rat model, which has been widely used as a model animal for renal failure, was examined. Two-thirds of the left kidney was removed from each of 4-week-old male Wistar rats (Charles River Japan Inc.) with a razor, and all of the right kidney was then removed therefrom one week after. Three weeks after the initial surgery, blood was collected from each rat through the tail vein and serum creatinine and BUN levels were determined from the blood. At this point of time, the urine was also collected for 24 hours to determine the mass of proteins in the urine. The rats were allocated to one of the treatment groups by the stratifying continuous randomization method based on the mass of proteins in the urine and the body weight (n=8 per group). […] Three weeks after the initial surgery, beraprost sodium or captopril (SIGMA, i.e., a positive control) was orally administered to each rat twice a day everyday, beginning the day on which administration of a drug was started and continued through five weeks after the administration. The determination of the renal functions was performed both three weeks and five weeks after the initial administration of a drug. The photographic images of the renal tissue were observed only five weeks after the initial administration.

[2] = system: ⅚ nephrectomized rat model; test: ⅚ nephrectomized rat model: observation of renal tissue images (histopathological change); type: in vivo, Wistar rats; details: 50 μg/kg; number of animals with change in 8 animals per group; five weeks after initial administration
Experimental: The effect of beraprost sodium on a ⅚ nephrectomized rat model, which has been widely used as a model animal for renal failure, was examined. Two-thirds of the left kidney was removed from each of 4-week-old male Wistar rats (Charles River Japan Inc.) with a razor, and all of the right kidney was then removed therefrom one week after. Three weeks after the initial surgery, blood was collected from each rat through the tail vein and serum creatinine and BUN levels were determined from the blood. At this point of time, the urine was also collected for 24 hours to determine the mass of proteins in the urine. The rats were allocated to one of the treatment groups by the stratifying continuous randomization method based on the mass of proteins in the urine and the body weight (n=8 per group). There was observed little difference in the initial values of blood creatinine and BUN values among the rats. Three weeks after the initial surgery, beraprost sodium or captopril (SIGMA, i.e., a positive control) was orally administered to each rat twice a day everyday, beginning the day on which administration of a drug was started and continued through five weeks after the administration. The determination of the renal functions was performed both three weeks and five weeks after the initial administration of a drug. The photographic images of the renal tissue were observed only five weeks after the initial administration. […] Five weeks after the initial administration, more exacerbation of chronic renal failure was observed. […] The same tendency was shown five weeks after the initial administration (Table 2).

[3] = system: glomerulonephritis model rats in inflammatory stage; test: Glomerulonephritis model rats, inflammatory stage, oral administration; details: for Urinary total protein excretion: 7 days after induction (1 week after initial administration); for Increase in urinal total protein excretion (in words): day 1 through day 7 after induction
Experimental: (§1) Eight-week-old male WKY rats (Charles River Japan Inc.) were administered intravenously with rabbit anti-rat glomerular basement membrane antiserum to induce glomerulonephritis. […] The frequency of the administration was twice a day for beraprost sodium and captopril and once a day for prednisolone. After the initial administration of a drug, urinary total protein excretion (which is a measure of renal functions) was determined.

[4] = system: glomerulonephritis model rats in renal failure stage; test: Glomerulonephritis model rats, renal failure stage, oral administration; details: for Increase in urinal total protein excretion (in words): renal failure stage, two weeks through four weeks after induction
Experimental: as §1

[5] = system: renal failure rat models of which the primary disease is glomerulonephritis; test: Renal failure rat models of which the primary disease is glomerulonephritis, subcutaneous osmotic pump; type: in vivo, WKY rats; details: Table 5
Description: Renal failure rat models of which the primary disease was glomerulonephritis were used to examine the effect of different 4,8-inter-m-phenylene prostaglandin I2 derivatives including beraprost sodium on the models. […] Two weeks after the induction, blood was collected from each rat through the tail vein to determine blood creatinine and BUN levels. […] Four types of 4,8-inter-m-phenylene prostaglandin I2 derivatives in total, including beraprost sodium, were individually administered subcutaneously to the rats from the back continuously with an osmotic pump (ALZET) for one week, beginning two weeks after induction of glomerulonephritis and continued through three weeks after the induction. The renal functions (i.e., blood creatinine and BUN levels) were determined one week after the initial administration of a drug.

[6] = five weeks after the administration of a drug
[7] = three weeks after the administration of a drug
[8] = 60 μg/kg group, 2 weeks after induction (before administration)
[9] = 60 μg/kg s.c. osmotic pump, 3 weeks after induction (1 week after the initial administration)

## C[C@H](CS)C(=O)N1CCC[C@H]1C(=O)O [Captopril, captopril, reference compound]
[1]; [6]
  Blood urea nitrogen: 47.8 ± 5.2 mg/dL
  Urinary protein excretion: 255.5 ± 76.6 mg/24 hr/kgBW
[1]; [7]
  Blood urea nitrogen: 51.4 ± 3.7 mg/dL
  Urinary protein excretion: 136.8 ± 29.9 mg/24 hr/kgBW
[2]
  Framework: Infiltration of mononuclear cells: 7
  Renal corpuscle: Cellular filling in glomerulus: 4
  Renal corpuscle: Coagulation of glomeruli in Bowman's capsule: 2
  Renal corpuscle: Deposition of PAS + materials in Bowman's capsule: 1
  Renal corpuscle: Epidermal growth in Bowman's capsule: 2
  Renal corpuscle: Glomerular hypertrophy: 1
  Renal corpuscle: Glomerulosclerosis: 2
  Uriniferous tuble: Basophilic degeneration of tubules: 6
  Uriniferous tuble: Proliferation of proximal tubules: 8
  Uriniferous tuble: Proteinaceous urinary casts: 4
  Uriniferous tuble: Tubular dilation: 8
[3]; 50 mg/kg oral twice a day
  Urinary total protein excretion: 75 ± 14 mg/24 hr
[3]
  Increase in urinal total protein excretion (in words): effective prevention
[4]; 50 mg/kg group, renal failure stage Exp. 2, 2 weeks after induction (before administration)
  Urinary total protein excretion: 318 ± 22 mg/24 hr
[4]; 50 mg/kg oral twice a day, renal failure stage Exp. 2, 4 weeks after induction (2 week after initial administration)
  Urinary total protein excretion: 504 ± 51 mg/24 hr
[4]; 100 mg/kg group, renal failure stage Exp. 2, 2 weeks after induction (before administration)
  Urinary total protein excretion: 325 ± 6 mg/24 hr
[4]; 100 mg/kg oral twice a day, renal failure stage Exp. 2, 4 weeks after induction (2 week after initial administration)
  Urinary total protein excretion: 517 ± 33 mg/24 hr
[4]
  Increase in urinal total protein excretion (in words): no effective prevention

## O=C([O-])CCCc1cccc2c1OC1CC(O)C(C#CC(O)C3CCCCC3)C21.[Na+] (stereo not drawn) [Compound 1]
[5]; [8]
  BUN: 29 ± 2 mg/dL
  Blood creatinine: 0.44 ± 0.05 mg/dL
[5]; [9]
  BUN: 27 ± 2 mg/dL
  Blood creatinine: 0.41 ± 0.02 mg/dL

## O=C([O-])/C=C/Cc1cccc2c1OC1CC(O)C(/C=C/C(O)c3ccccc3)C21.[Na+] (stereo not drawn) [Compound 2]
[5]; [8]
  BUN: 28 ± 2 mg/dL
  Blood creatinine: 0.45 ± 0.04 mg/dL
[5]; [9]
  BUN: 31 ± 3 mg/dL
  Blood creatinine: 0.44 ± 0.05 mg/dL

## O=C([O-])CCCc1cccc2c1OC1CC(O)C(/C=C/C(O)c3ccccc3)C21.[Na+] (stereo not drawn) [Compound 3]
[5]; [8]
  BUN: 28 ± 3 mg/dL
  Blood creatinine: 0.45 ± 0.05 mg/dL
[5]; [9]
  BUN: 30 ± 3 mg/dL
  Blood creatinine: 0.39 ± 0.04 mg/dL

## C[C@]12C=CC(=O)C=C1CC[C@@H]1[C@@H]2[C@@H](O)C[C@@]2(C)[C@H]1CC[C@]2(O)C(=O)CO [Prednisolone, prednisolone]
[3]; 2 mg/kg oral once a day
  Urinary total protein excretion: 38 ± 8 mg/24 hr
[3]
  Increase in urinal total protein excretion (in words): effective prevention
[4]; 2 mg/kg group, renal failure stage Exp. 1, 2 weeks after induction (before administration)
  Urinary total protein excretion: 368 ± 20 mg/24 hr
[4]; 2 mg/kg oral once a day, renal failure stage Exp. 1, 3 weeks after induction (1 week after initial administration)
  Urinary total protein excretion: 456 ± 78 mg/24 hr
[4]
  Increase in urinal total protein excretion (in words): no effective prevention
